Read-outs that look alike come from different tables or passages of the source.
Experiments:
[1] = tested on: Alpo5-wt; experiment: Two-electrode voltage clamp (TEVC) on Alpo5-wt expressed in Xenopus laevis oocytes; assay type: cell-based, Alvinella pompejana; conditions: for Hill coefficient / EC50: concentration-activation curve, n = 4; for EC50: Hill fit, -80 mV
Protocol: (§1) For the expression in Xenopus laevis oocytes, the genes coding for AlpoX-wt were subcloned into the vector pGEM-HE [38]. After NheI-treatment, the linearized plasmid DNA was transcribed to produce capped RNA by using the T7 mMESSAGE-mMACHINE transcription kit (Ambion). Four nanogram of the resulting RNA was injected into the cytosol of stage V and VI oocytes either manually or with an automated injection system (Roboinject, MultiChannelSystems). Oocyte preparations and injections were done using standard procedures.
(§2) One to five days after injection, electrophysiological recordings were performed by conventional or automated TEVC (HiClamp, MultiChannel Systems). […] Unless indicated otherwise, cells were held at a fixed potential of –80 mV throughout the experiment. To minimize heat shock, all preparation and recording procedures were carried out at 16°C [40]. Functional characterization consisted of the screening of potential ligands, the establishment of concentration-activation curves and the determination of ion selectivity. Different small molecules were tested for their effects on AlpoX-wt, such as dopamine, taurine, γ-aminobutyric acid (GABA), glycine and ivermectin (the complete list and the corresponding concentrations are mentioned in Table 1). To determine concentration-activation curves, cells were exposed to increasing concentrations of the test substance. To assess ion selectivity, current-voltage (I-V) relationships were determined in control OR2 solution as well as in medium in which chloride ions were substituted by gluconate. These I-V curves were generated by voltage ramps applied within 4 s and constructed around the reversal potential (Erev ± 80 mV). Leak properties of the cells measured in control conditions were subtracted from the I-V curves measured during exposure to 10 mM GABA.
(§3) Data were acquired either on a manual setup or on an automated recording system (HiClamp, MultiChannel Systems). […] Data acquired with the HiClamp were analyzed using the corresponding software.

[2] = tested on: Alpo6-wt; experiment: Two-electrode voltage clamp (TEVC) on Alpo6-wt expressed in Xenopus laevis oocytes; assay type: cell-based, Alvinella pompejana; conditions: for Hill-coefficients: activation-response curves; for EC50: concentration-activation curve
Protocol: as §1, §2, §3

[3] = target: Alpo4-wt (Alvinella pompejana); experiment: negative stain EM; purified protein 0.03 mg/mL on carbon-coated copper grids, 1% uranyl formate, 120 kV; 2D class averages for Alpo4-wt

NCCCC(=O)O [GABA, γ-aminobutyric acid]
agonist type [1]: full-agonists | Hill coefficient [1]: 2.49 ± 0.09 | agonist type [2]: partial agonistic effect | Hill-coefficients [2]: 1.94 ± 0.15 | current evoked by a saturating concentration relative to current evoked by a saturating concentration of glycine ([2]; on average): 86%

Alpo4-wt (receptor)
stoichiometry N [3]: 5

NCCS(=O)(=O)O [taurine]
agonist type [1]: partial agonist | EC50 [1]: 370 ± 30.2 µM | Hill coefficient [1]: 2.51 ± 0.18 | currents evoked at a saturating concentration relative to responses evoked by a saturating concentration of glycine ([1]; on average): 74% | agonist type [2]: full agonists | Hill-coefficients [2]: 1.87 ± 0.12 | EC50 ([2]; n = 3, read-out: EC50 value): 227 ± 30.5 µM

NCC(=O)O [glycine]
agonist type [1]: full-agonists | EC50 [1]: 291 ± 16.4 µM | Hill coefficient [1]: 2.68 ± 0.08 | agonist type [2]: full agonists | Hill-coefficients [2]: 2.20 ± 0.16 | EC50 ([2]; n = 3, read-out: EC50 values): 22100 ± 4530 µM

— PMC4801368, “Functional and Biochemical Characterization of Alvinella pompejana Cys-Loop Receptor Homologues” (PLoS ONE, 2016)
